Laboratory results from patent US20190255042A1, “APPLICATION OF HEDGEHOG PATHWAY INHIBITOR IN TREATING FIBROSIS DISEASES” (IMPACT THERAPEUTICS, INC, priority 2016, published 2019).

Key:
[1] = system: liver fibrosis model in C57BL/6 mice induced by CCl4; experiment: Prophylactic therapeutic efficacy in liver fibrosis model in C57BL/6 mice induced by CCl4; assay type: in vivo
Protocol: 56 male C57BL/6 mice were randomize divided into false Model group (Group 1, n=6), Model group (Group 2, n=10), positive drug Obercholic acid group (Group 3, n=10, 30 mg/kg/d), compound A low-dose group (Group 4, n=10, 5 mg/kg/d), Compound A medium-dose (Group 5, n=10, 10 mg/kg/d), and Compound A high-dose group (Group 6, n=10, 20 mg/kg/d). Oral molding agent for molding three times a week, for 4 weeks, weighing before each dose. Compound A was administered orally once a day for a total of 28 days from the day of modeling. The model group was given an equal volume of drug vehicle and weighed before each dose. All animals fasted for 6 hours from 24 hours after the end of the last dose. Serum was collected and the concentrations of AST, ALT and TBIL in serum were detected. All animals were euthanized, the livers were collected, weighed, and photos of the gross anatomy of the livers were taken. The liver tissue was fixed in 10% formalin solution for histopathological examination, H&E staining and Sirius red staining.

[2] = system: unilateral pulmonary fibrosis model in SD rats; experiment: Therapeutic efficacy in unilateral pulmonary fibrosis model in SD rats (bleomycin, dosing from D8); assay type: in vivo; parameters: Evaluation of injury and inflammatory lesions of left lung: Fibrotic lesion edge / Evaluation of injury and inflammatory lesions of left lung: Fibrosis lesion: scale not given here; conditions: for Expression of Type I collagen (%) / Expression of α-SMA protein (%): left lung immunohistochemistry; for Expression of Type I collagen (%) / Expression of α-SMA protein (%) / Evaluation of injury and inflammatory lesions of left lung: Fibrosis lesion / Evaluation of injury and inflammatory lesions of left lung: Fibrotic lesion edge / Fibrosis area (left pulmonary) / Fibrosis Score 1-3 (%) / Fibrosis Score 4-8 (%) / Fibrosis score (Ashcraft) / Volume of left lung / Weight of left lung: mean ± sem; for Evaluation of injury and inflammatory lesions of left lung: Fibrosis lesion / Evaluation of injury and inflammatory lesions of left lung: Fibrotic lesion edge: HE score; for Fibrosis area (left pulmonary): Masson trichrome
Protocol: On the modeling day, rats were anesthetized and exposed to trachea. Bleomycin was injected into left trachea of each group (dosage: 3 mg/kg, volume: 1.0 ml/kg). Oral administration was performed on Day 8 after modeling, once a day. On Day 22, according to the KCI animal euthanasia SOP, animals in each group were given an overdose of sodium barbiturate and sacrificed under intraperitoneal anesthesia, the left lung was taken, the weight and volume of the left lung were measured, then fixed by formalin, the bronchioles were stained with HE, Masson trichrome. The bronchioles, final bronchiole and small pulmonary artery injury and inflammation invasion were evaluated by semi-quantitative score, and pulmonary fibrosis was evaluated by Ashcraft semi-quantitative score. Immunohistochemical staining of α-SMA, Type I collagen (Collagen-I) were performed at the same time, a full scan was performed by Hamamatsu NanoZoomer Digital Pathology (S210), the α-SMA positive area was semiquantitatively calculated from the unit area of the whole sheelt in pulmonary fibrosis foci, and the positive staining area of type-I collagent per unit of area was calculated.

[3] = system: lung fibrosis model in mice induced by bleomycin; experiment: Therapeutic efficacy in lung fibrosis model in mice induced by bleomycin; assay type: in vivo, C57BL/6 mice; conditions: for Percentage of positive α-SMA (%): lung tissue immunohistochemical staining; for Percentage of positive α-SMA (%) / Inflammatory infiltration area / Total lung tissue area / Percentage of inflammatory area (%): n = 10, Mean ± Sem; for Percentage of inflammatory area (%): #<0.05 vs. BLM model group; for inflammatory infiltration area compared with model group: p<0.05
Protocol: Experimental Methods: 60 male C57BL/6 mice were randomize into 6 groups: Blank control group (Group 1, n=10), model group (Group 2, BLM, n=10), Compound A 10 mpk group (Group 3, n=10), compound A 20 mpk group (Group 4, n=10), Compound A 20 mpk +BIBF1120 50 mpk (Group 5, n=10), and BIBF1120 50 mpk positive reference group (Group 6, n=10). One week after the mice were acclimated to the environment, 10 mice in the blank control group were given 50 μl of normal saline in the trachea, and other 50 mice were given 50 μl BLM (0.66 mg/kg, 2 ml/kg) in the trachea. After BLM infusion, 50 mice in BLM infusion group were randomly assigned to start treatment on the 5th day, once a day, with a treatment cycle of 20 days. The whole process was 25 days. After the experiment, the lung tissues were fixed in 10% neutral formalin, dehydrated by alcohol gradient, embedded with paraffin, stained by hematoxylin-eosin (H&E) and Masson trichrome staining. And the inflammatory area and degree of fibrosis of the lung tissues in mice were evaluated by APERIO ScanScope. Immunohistochemical staining of lung tissue was performed to quantify α-SMA positive fibroblasts in lung tissue and to calculate the percentage (%) of α-SMA staining in the entire lung stroma.

[4] = high dose group (20 mg/kg/d), four weeks, p<0.05
[5] = obercholic acid 30 mg/kg/d, compound A 5, 10, 20 mg/kg/d
[6] = 5 mpk oral D8 to D22 after modeling
[7] = 15 mpk oral D8 to D22 after modeling
[8] = 30 mpk oral D8 to D22 after modeling

CC(C)c1cnc(-c2cc(NC(=O)c3ccc(N4C[C@@H](C)N(C)[C@@H](C)C4)cc3C(F)(F)F)ccc2Cl)[nH]1 [Comp A, N-(3-(5-isopropyl-1H-imidazol-2-yl)-4-chlorophenyl)-2-trifluoromethyl-4-((3S,5R)-3,4,5-trimethylpiperazin-1-yl)benzamide]
serum ALT, AST, and TBIL ([1]; 5 mg/kg, 10 mg/kg, and 20 mg/kg daily for four consecutive weeks): Slight reductions
effect on the inflammatory response of liver tissue ([1]; 5, 10, 20 mg/kg daily for four weeks): little effect
dose-dependent ALT and AST ([1]; 5, 10, 20 mg/kg/d, four weeks): decreasing trend
hepatocellular degeneration, necrosis and inflammatory cell infiltration ([1]; Compound A treatment groups 5, 10, 20 mg/kg/d): tendency to reduce
TBIL compared with model group ([1]; Compound A, four weeks of treatment): not significantly decreased
liver weight ([1]; after 4 weeks, compared with false model group, Obercholic acid 30 mg/kg/d, Compound A 5, 10, 20 mg/kg/d): no significant increase
area of liver tissue fibrosis ([1]; compound A dose groups, model group 1.2%, no statistical difference): 0.8%
changes of liver surface compared with model group ([1]; gross liver after 4 weeks, Obercholic acid 30 mg/kg/d, compound A 5, 10, 20 mg/kg/d): slightly alleviated
ALT compared with model group [1, 4]: significantly lower
AST compared with model group [1, 4]: significantly lower
body weight ([1]; high-dose group 20 mg/kg, significant difference from the other groups): no significant body weight growth
hepatic fibrosis area (Sirius red staining) compared with model group [1, 5]: no significant difference
total score of liver cell injury compared with model group [1, 5]: not significantly different
liver injury score ([1]; three dose groups (5, 10, 20 mg/kg), model group 6 points): 4-5 points
percentage of α-SMA protein compared with model group ([2]; 30 mg/kg/d): significantly decreased
percentage of Type-I collagen protein ([2]; 30 mg/kg/d and 15 mg/kg/d, no statistical significance): decreased
dose dependence of α-SMA protein expression ([2]; 5, 15, 30 mg/kg/d): significant dose dependence
Expression of Type I collagen (%) ([2]; 5 mpk oral D8 to D22, n = 5): 18.76 ± 2.54%
Expression of α-SMA protein (%) ([2]; 5 mpk oral D8 to D22, n = 5): 8.06 ± 0.59%
Evaluation of injury and inflammatory lesions of left lung: Fibrosis lesion [2, 6]: 6.75 ± 0.40
Evaluation of injury and inflammatory lesions of left lung: Fibrotic lesion edge [2, 6]: 4.90 ± 0.15
Fibrosis area (left pulmonary) [2, 6]: 70.61 ± 5.23
Fibrosis Score 1-3 (%) [2, 6]: 88.00 ± 5.83%
Fibrosis Score 4-8 (%) [2, 6]: 12.00 ± 5.83%
Fibrosis score (Ashcraft) [2, 6]: 2.44 ± 0.11
Volume of left lung [2, 6]: 1.34 ± 0.14 cm^3
Weight of left lung [2, 6]: 1.60 ± 0.33 g
damage and inflammatory response of terminal bronchioles within fibrosis lesions and pulmonary small artery compared with model group ([2]; 14 consecutive days, BIBF1120 100, Compound A 5, 15, 30, GDC0449 50 mg/kg/d, p<0.001): significantly reduced
Expression of Type I collagen (%) ([2]; 15 mpk oral D8 to D22, n = 7): 16.48 ± 0.93%
Expression of α-SMA protein (%) ([2]; 15 mpk oral D8 to D22, n = 7): 7.30 ± 0.84%
Evaluation of injury and inflammatory lesions of left lung: Fibrosis lesion [2, 7]: 6.89 ± 0.34
Evaluation of injury and inflammatory lesions of left lung: Fibrotic lesion edge [2, 7]: 4.82 ± 0.24
Fibrosis area (left pulmonary) [2, 7]: 71.16 ± 2.81
Fibrosis Score 1-3 (%) [2, 7]: 91.43 ± 1.43%
Fibrosis Score 4-8 (%) [2, 7]: 8.57± 1.43%
Fibrosis score (Ashcraft) [2, 7]: 2.44 ± 0.07
Volume of left lung [2, 7]: 1.41 ± 0.21 cm^3
Weight of left lung [2, 7]: 1.40 ± 0.21 g
Expression of Type I collagen (%) ([2]; 30 mpk oral D8 to D22, n = 7): 16.77 ± 2.03%
Expression of α-SMA protein (%) ([2]; 30 mpk oral D8 to D22, n = 7, **p<0.01 vs. Model group): 4.96 ± 0.26** %
Evaluation of injury and inflammatory lesions of left lung: Fibrosis lesion [2, 8]: 7.03 ± 0.18
Evaluation of injury and inflammatory lesions of left lung: Fibrotic lesion edge [2, 8]: 4.95 ± 0.20
Fibrosis area (left pulmonary) [2, 8]: 71.27 ± 3.21
Fibrosis Score 1-3 (%) [2, 8]: 84.29 ± 4.81%
Fibrosis Score 4-8 (%) [2, 8]: 15.71 ± 4.81%
Fibrosis score (Ashcraft) [2, 8]: 2.47 ± 0.16
Volume of left lung [2, 8]: 1.40 ± 0.09 cm^3
Weight of left lung [2, 8]: 1.44 ± 0.14 g
degree of pulmonary fibrosis (Ashcraft score) compared with model group ([2]; BIBF1120 100, Compound A 5, 15, 30, GDC0449 50 mg/kg/d, p<0.01): significantly better
amount of Type I collagen deposition in the fibrotic lesions compared with model group ([2]; BIBF1120 100 mpk, Compound A 5 mpk, GDC0449 50 mpk): no significant difference
Percentage of positive α-SMA (%) ([3]; 10 mpk oral D5 to D25): 0.78 ± 0.11%
Inflammatory infiltration area ([3]; 10 mpk oral D5 to D25): 8.80 ± 2.79 mm^2
Total lung tissue area ([3]; 10 mpk oral D5 to D25): 100.20 ± 3.61 mm^2
Percentage of inflammatory area (%) ([3]; 10 mpk oral D5 to D25): 9.42 ± 3.35^# %
modified pathological Ashcroft score of pulmonary fibrosis injury compared with model group ([3]; 10 mpk, p<0.01): significantly decreased
inflammatory infiltration area compared with model group ([3]; 10 mpk): significantly decreased
Percentage of positive α-SMA (%) ([3]; 20 mpk oral D5 to D25, ##p < 0.01 vs. Model group): 0.64 ± 0.12^## %
Inflammatory infiltration area ([3]; 20 mpk oral D5 to D25): 7.85 ± 2.28 mm^2
Total lung tissue area ([3]; 20 mpk oral D5 to D25): 96.41 ± 3.28 mm^2
Percentage of inflammatory area (%) ([3]; 20 mpk oral D5 to D25): 8.23 ± 2.40^# %
immunohistochemical staining of α-SMA compared with model group ([3]; 20 mpk, p<0.01): significantly decreased
modified pathological Ashcroft score of pulmonary fibrosis injury compared with model group ([3]; 20 mpk, p<0.01): significantly decreased
inflammatory infiltration area compared with model group ([3]; 20 mpk): significantly decreased
